In US8828908B2, “Herbicidally active bicyclic 1,3-dione compounds” (Syngenta Limited, priority 2007, dated 2014):

Columns and labels:
Assay type in all cases: in vivo
Setaria faberi (SETFA) [1] = test: Example A pre-emergence herbicidal glasshouse test; conditions: 312 h, Rate 250 g/ha, evaluated after 13 days, 100=total damage to plant, 0=no damage to plant
Experimental: (§1) Seeds of a variety of test species were sown in standard soil in pots. After cultivation for one day (pre-emergence) or after 8 days cultivation (post-emergence) under controlled conditions in a glasshouse (at 24/16° C., day/night; 14 hours light; 65% humidity), the plants were sprayed with an aqueous spray solution derived from the formulation of the technical active ingredient in acetone/water (50:50) solution containing 0.5% Tween 20 (polyoxyethelyene sorbitan monolaurate, CAS RN 9005-64-5). The test plants were then grown in a glasshouse under controlled conditions in a glasshouse (at 24/16° C., day/night; 14 hours light; 65% humidity) and watered twice daily. After 13 days for pre and post-emergence, the test was evaluated (100=total damage to plant; 0=no damage to plant).
(§2) Alopecurus myosuroides (ALOMY), Avena fatua (AVEFA), Setaria faberi (SETFA), Echinochloa crus-galli (ECHCG), Solanum nigrum (SOLNI) and Amaranthus retroflexus (AMARE)

[2] = test system: Echinochloa crus-galli (ECHCG); test: Example A pre-emergence herbicidal glasshouse test; conditions: 312 h, Rate 250 g/ha, evaluated after 13 days, 100=total damage to plant, 0=no damage to plant
Experimental: as §1, §2

[3] = test system: Alopecurus myosuroides (ALOMY); test: Example A pre-emergence herbicidal glasshouse test; conditions: 312 h, Rate 250 g/ha, evaluated after 13 days, 100=total damage to plant, 0=no damage to plant
Experimental: as §1, §2

Avena fatua (AVEFA) [4] = test: Example A pre-emergence herbicidal glasshouse test; conditions: 312 h, Rate 250 g/ha, evaluated after 13 days, 100=total damage to plant, 0=no damage to plant
Experimental: as §1, §2

[5] = test system: Amaranthus retroflexus (AMARE); test: Example A pre-emergence herbicidal glasshouse test; conditions: 312 h, Rate 250 g/ha, evaluated after 13 days, 100=total damage to plant, 0=no damage to plant
Experimental: as §1, §2

Setaria faberi (SETFA) [6] = test: Example A post-emergence herbicidal glasshouse test; conditions: 312 h, evaluated after 13 days, 100=total damage to plant, 0=no damage
Experimental: as §1, §2

[7] = test system: Echinochloa crus-galli (ECHCG); test: as above; conditions: 312 h, evaluated after 13 days, 100=total damage to plant, 0=no damage
Experimental: as §1, §2

[8] = test system: Alopecurus myosuroides (ALOMY); test: as above; conditions: 312 h, evaluated after 13 days, 100=total damage to plant, 0=no damage
Experimental: as §1, §2

Avena fatua (AVEFA) [9] = test: as above; conditions: 312 h, evaluated after 13 days, 100=total damage to plant, 0=no damage
Experimental: as §1, §2

[10] = test system: Amaranthus retroflexus (AMARE); test: as above; conditions: 312 h, evaluated after 13 days, 100=total damage to plant, 0=no damage
Experimental: as §1, §2

Row | SMILES | pest or weed control at 250 g/ha (Setaria faberi (SETFA) [1]) | pest or weed control at 250 g/ha [2] | pest or weed control at 250 g/ha [3] | pest or weed control at 250 g/ha (Avena fatua (AVEFA) [4]) | pest or weed control at 250 g/ha [5] | pest or weed control at 250 g/ha (Setaria faberi (SETFA) [6]) | pest or weed control at 250 g/ha [7] | pest or weed control at 250 g/ha [8] | pest or weed control at 250 g/ha (Avena fatua (AVEFA) [9]) | pest or weed control at 250 g/ha [10]
1 | Cc1ccc(-c2ccc(F)c(F)c2)cc1C1=C(O)[C@H]2CC[C@H](C2)C1=O (single isomer, unassigned) [Compound T9] | 50% | 0% | 0% | 0% | 0% | 80% | 70% | 10% | 40% | 0%
2 | Cc1ccc(-c2ccccc2C)cc1C1=C(O)[C@H]2CC[C@H](C2)C1=O (single isomer, unassigned) [Compound T18] | 0% | 0% | 0% | 0% | 0% | 0% | 0% | 0% | 0% | 0%
3 | Cc1cccc(-c2ccc(C)c(C3=C(O)[C@H]4CC[C@H](C4)C3=O)c2)c1 (single isomer, unassigned) [Compound T19] | 0% | 0% | 0% | 0% | 0% | 50% | 40% | 0% | 0% | 20%
4 | Cc1ccc(-c2ccc(C)c(C3=C(O)[C@H]4CC[C@H](C4)C3=O)c2)cc1 (single isomer, unassigned) [Compound T20] | 0% | 40% | 10% | 0% | 0% | 50% | 60% | 20% | 0% | 0%
5 | Cc1ccc(-c2ccccc2C(F)(F)F)cc1C1=C(O)[C@H]2CC[C@H](C2)C1=O (single isomer, unassigned) [Compound T21] | 0% | 0% | 0% | 0% | 0% | 20% | 0% | 0% | 0% | 0%
6 | Cc1ccc(-c2cccc(C(F)(F)F)c2)cc1C1=C(O)[C@H]2CC[C@H](C2)C1=O (single isomer, unassigned) [Compound T22] | 10% | 20% | 0% | 0% | 0% | 50% | 20% | 0% | 0% | 0%
7 | Cc1ccc(-c2ccc(C(F)(F)F)cc2)cc1C1=C(O)[C@H]2CC[C@H](C2)C1=O (single isomer, unassigned) [Compound T23] | 100% | 90% | 50% | 0% | 0% | 100% | 90% | 60% | 60% | 0%
8 | CCc1ccc(-c2cccc(Cl)c2)cc1C1=C(O)[C@H]2CC[C@H](C2)C1=O (single isomer, unassigned) [Compound T38] | 0% | 60% | 0% | 0% | 0% | 40% | 70% | 20% | 0% | 0%
9 | CCc1ccc(-c2cc(Cl)ccc2OC)cc1C1=C(O)[C@H]2CC[C@H](C2)C1=O (single isomer, unassigned) [Compound T40] | 0% | 0% | 0% | 0% | 0% | 0% | 0% | 0% | 0% | 0%
10 | Cc1ccc(-c2ccc(Cl)cc2C(F)(F)F)cc1C1=C(O)[C@H]2CC[C@H](C2)C1=O (single isomer, unassigned) [Compound T42] | 0% | 0% | 0% | 0% | 0% | 0% | 0% | 0% | 0% | 0%
11 | CCc1ccc(-c2ccc(Cl)cc2C(F)(F)F)cc1C1=C(O)[C@H]2CC[C@H](C2)C1=O (single isomer, unassigned) [Compound T45] | 0% | 0% | 0% | 0% | 0% | 70% | 60% | 30% | 0% | 0%
12 | Cc1ccc(-c2cccc(Cl)c2F)cc1C1=C(O)[C@H]2CC[C@H](C2)C1=O (single isomer, unassigned) [Compound T46] | 0% | 0% | 0% | 0% | 0% | 0% | 0% | 0% | 0% | 0%
13 | Cc1ccc(-c2cc(F)cc(Cl)c2)cc1C1=C(O)[C@H]2CC[C@H](C2)C1=O (single isomer, unassigned) [Compound T47] | 0% | 0% | 0% | 0% | 0% | 0% | 30% | 0% | 0% | 0%
14 | Cc1ccc(-c2cccc(Cl)c2C)cc1C1=C(O)[C@H]2CC[C@H](C2)C1=O (single isomer, unassigned) [Compound T48] | 0% | 0% | 0% | 0% | 0% | 40% | 40% | 0% | 20% | 0%
15 | Cc1ccc(-c2ccc(C)c(C3=C(O)[C@H]4CC[C@H](C4)C3=O)c2)cc1Cl (single isomer, unassigned) [Compound T49] | 0% | 30% | 0% | 0% | 0% | 30% | 30% | 0% | 0% | 0%
16 | Cc1ccc(-c2cc(Cl)ccc2C)cc1C1=C(O)[C@H]2CC[C@H](C2)C1=O (single isomer, unassigned) [Compound T50] | 0% | 0% | 0% | 0% | 0% | 0% | 30% | 0% | 0% | 0%
17 | Cc1ccc(-c2cc(Cl)ccc2Cl)cc1C1=C(O)[C@H]2CC[C@H](C2)C1=O (single isomer, unassigned) [Compound T51] | 0% | 0% | 0% | 0% | 0% | 0% | 0% | 0% | 0% | 0%
